Laboratory results as given in patent publication US20160264593A1 (priority 2013, published 2016).
Where “and” joins values, the source holds several entries; their conditions need not be identical. Equal entries are not always repeated.

Tests used:
[1] = Pharmacokinetic study of 151 (and 100) in SD rats, iv and oral; plasma; conditions: for AUC0-t of 151 / AUC0-∞ of 151 / CL of 151 / MRT of 151 / T1/2 of 151 / Vss of 151 / Cmax of 151: plasma
Protocol: A pharmacokinetic study of 151 was conducted in SD rats. The study consisted of two dose levels at 1.0 (iv) and 10 (oral) mg/kg. The blood samples were collected at predetermined times from rats and centrifuged to separate plasma. An LC/MS/MS method was developed to determine the test article in plasma samples. The pharmacokinetic parameters of 151 following iv and oral administration to SD rats were calculated. The absolute bioavailability was evaluated.
The final concentration of the test article was 0.2 mg/mL for iv administration and 1.0 mg/mL for oral administration. The test article solutions were administered using the most recent body weight for each animal.
Blood (approximately 0.3 mL) were collected via orbital plexus into tubes containing sodium heparin at 0.25, 0.5, 1, 2, 3, 5, 7, 9, and 24 hours after oral administration; at 5 min, 15 min, 0.5, 1, 2, 3, 5, 7, 9 and 24 hours after iv administration. Samples were centrifuged for 5 min, at 4° C. with the centrifuge set at 11,000 rpm to separate plasma. The obtained plasma samples were stored frozen at a temperature of about −70° C. until analysis.
Frozen plasma samples were thawed at room temperature and vortexed thoroughly. With a pipette, an aliquot (30 μL) of plasma was transferred into a 1.5-mL conical polypropylene tube. To each sample, 160 μL of acetonitrile were added. The samples were then vigorously vortex-mixed for 1 min. After centrifugation at 11000 rpm for 5 min, a 15 μL aliquot of the supernatant was injected into the LC-MS/MS system for analysis.
Calibration standards were prepared by spiking 30 μL of the 151 standard solutions into 30 μL of heparinized blank rat plasma. The nominal standard concentrations in the standard curve were 1.00, 3.00, 10.0, 30.0, 100, 300, 1000 and 3000 ng/mL.
The analysis was performed using an LC-MS/MS system consisting of the following components—HPLC system: Agilent 1200 series instrument consisting of G1312B vacuum degasser, G1322A binary pump, G1316B column oven and G1367D autosampler (Agilent, USA); MS/MS system: Agilent 6460 triple quadrupole mass spectrometer, equipped with an APCI Interface (Agilent, USA); Data system: MassHunter Software (Agilent, USA).
Chromatographic separation was carried out at room temperature—Analytical column: C8 column (4.6 mm×150 mm I.D., 5 μm, Agilent, USA); Mobile phase: Acetonitrile:10 mM ammonium acetate (75:25, v/v); Flow rate: 0.80 mL/min; Injection volume: 15 μL.
The mass spectrometer was operated in the positive mode. Ionization was performed applying the following parameters: gas temperature, 325° C.; vaporizer temperature, 350° C.; gas flow, 4 L/min; nebulizer, 20 psi; capillary voltage, 4500 V; corona current, 4 μA. 151 was detected using MRM of the transitions m/z 283→m/z 123 and m/z 283→m/z 251, simultaneously. The optimized collision energies of 25 eV and 10 eV were used for m/z 123 and m/z 251, respectively.
Quantification was achieved by the external standard method. Concentrations of the test article were calculated using a weighted least-squares linear regression (W=1/x^2).
The pharmacokinetic parameters were evaluated using WinNonlin version 5.3 (Pharsight Corp., Mountain View, Calif., USA), assuming a non-compartmental model for drug absorption and distribution. • AUC0-t is the area under the plasma concentration-time curve from time zero to last sampling time, calculated by the linear trapezoidal rule. • AUC0-∞ is the area under the plasma concentration-time curve from time zero extrapolating to infinity. • T1/2 is the elimination half-life associated with the terminal (log-linear) elimination phase, which is estimated via linear regression of time vs. log concentrations. • CL is the total body clearance. • Vss is the volume of distribution at steady-state.

[2] = Oral administration of 100 and 151 (Discussion): oral bioavailability, plasma and brain levels
[3] = 151 IV 1.0 mg/kg, SD rats, individual, 1 mg/kg
[4] = 151 IV 1.0 mg/kg, SD rats, mean
[5] = 151 PO 10 mg/kg, SD rats, individual, 10 mg/kg

COC(=O)C1C2CCC(O2)C1C(=O)N1CCN(C)CC1 (centres unmarked) [Compound 151]
151 plasma concentration ([1]; 151 IV 1.0 mg/kg, SD rats, 0.083 h, individual, 1 mg/kg): 1677 ng/mL and 1301 ng/mL
151 plasma concentration ([1]; 151 IV 1.0 mg/kg, SD rats, 0.083 h, mean): 1489 ng/mL
151 plasma concentration ([1]; 151 IV 1.0 mg/kg, SD rats, 0.250 h, individual, 1 mg/kg): 1160 ng/mL and 949 ng/mL
151 plasma concentration ([1]; 151 IV 1.0 mg/kg, SD rats, 0.250 h, mean): 1055 ng/mL
151 plasma concentration ([1]; 151 IV 1.0 mg/kg, SD rats, 0.50 h, individual, 1 mg/kg): 760 ng/mL and 807 ng/mL
151 plasma concentration ([1]; 151 IV 1.0 mg/kg, SD rats, 0.50 h, mean): 683 ng/mL
151 plasma concentration ([1]; 151 IV 1.0 mg/kg, SD rats, 1.0 h, individual, 1 mg/kg): 381 ng/mL and 314 ng/mL
151 plasma concentration ([1]; 151 IV 1.0 mg/kg, SD rats, 1.0 h, mean): 348 ng/mL
151 plasma concentration ([1]; 151 IV 1.0 mg/kg, SD rats, 2.0 h, individual, 1 mg/kg): 95.8 ng/mL and 103 ng/mL
151 plasma concentration ([1]; 151 IV 1.0 mg/kg, SD rats, 2.0 h, mean): 99.6 ng/mL
151 plasma concentration ([1]; 151 IV 1.0 mg/kg, SD rats, 3.0 h, individual, 1 mg/kg): 39.6 ng/mL and 28.1 ng/mL
151 plasma concentration ([1]; 151 IV 1.0 mg/kg, SD rats, 3.0 h, mean): 33.8 ng/mL
151 plasma concentration ([1]; 151 IV 1.0 mg/kg, SD rats, 5.0 h, individual, 1 mg/kg): 9.75 ng/mL and 3.63 ng/mL
151 plasma concentration ([1]; 151 IV 1.0 mg/kg, SD rats, 5.0 h, mean): 6.69 ng/mL
151 plasma concentration ([1]; 151 IV 1.0 mg/kg, SD rats, 7.0 h, individual, 1 mg/kg): 12.2 ng/mL and 1.83 ng/mL
151 plasma concentration ([1]; 151 IV 1.0 mg/kg, SD rats, 7.0 h, mean): 7.02 ng/mL
151 plasma concentration ([1]; 151 IV 1.0 mg/kg, SD rats, 9.0 h, individual): 2.01 ng/mL
151 plasma concentration ([1]; 151 IV 1.0 mg/kg, SD rats, 9.0 h, individual, 1 mg/kg): BLQ
151 plasma concentration ([1]; 151 IV 1.0 mg/kg, SD rats, 9.0 h, mean): 1.00 ng/mL
151 plasma concentration ([1]; 151 IV 1.0 mg/kg, SD rats, 24 h, individual): BLQ
conversion of 151 to 100 in plasma (statement) ([1]; 151 PO 10 mg/kg and iv 1.0 mg/kg): converted to LB100
151 plasma concentration ([1]; 151 PO 10 mg/kg, SD rats, 0.25 h, individual, 10 mg/kg): 2231 ng/mL and 2029 ng/mL and 2731 ng/mL
151 plasma concentration ([1]; 151 PO 10 mg/kg, SD rats, 0.25 h, mean): 2330 ng/mL
151 plasma concentration ([1]; 151 PO 10 mg/kg, SD rats, 0.50 h, individual, 10 mg/kg): 2451 ng/mL and 3934 ng/mL and 3343 ng/mL
151 plasma concentration ([1]; 151 PO 10 mg/kg, SD rats, 0.50 h, mean): 3243 ng/mL
151 plasma concentration ([1]; 151 PO 10 mg/kg, SD rats, 1.0 h, individual, 10 mg/kg): 2204 ng/mL and 2581 ng/mL and 2538 ng/mL
151 plasma concentration ([1]; 151 PO 10 mg/kg, SD rats, 1.0 h, mean): 2441 ng/mL
151 plasma concentration ([1]; 151 PO 10 mg/kg, SD rats, 2.0 h, individual, 10 mg/kg): 1100 ng/mL and 1237 ng/mL and 1582 ng/mL
151 plasma concentration ([1]; 151 PO 10 mg/kg, SD rats, 2.0 h, mean): 1306 ng/mL
151 plasma concentration ([1]; 151 PO 10 mg/kg, SD rats, 3.0 h, individual, 10 mg/kg): 521 ng/mL and 660 ng/mL and 794 ng/mL
151 plasma concentration ([1]; 151 PO 10 mg/kg, SD rats, 3.0 h, mean): 658 ng/mL
151 plasma concentration ([1]; 151 PO 10 mg/kg, SD rats, 5.0 h, individual, 10 mg/kg): 125 ng/mL and 99.4 ng/mL and 192 ng/mL
151 plasma concentration ([1]; 151 PO 10 mg/kg, SD rats, 5.0 h, mean): 139 ng/mL
151 plasma concentration ([1]; 151 PO 10 mg/kg, SD rats, 7.0 h, individual, 10 mg/kg): 42.6 ng/mL and 20.7 ng/mL and 68.0 ng/mL
151 plasma concentration ([1]; 151 PO 10 mg/kg, SD rats, 7.0 h, mean): 43.8 ng/mL
151 plasma concentration ([1]; 151 PO 10 mg/kg, SD rats, 9.0 h, individual, 10 mg/kg): 52.1 ng/mL and 38.2 ng/mL and 66.1 ng/mL
151 plasma concentration ([1]; 151 PO 10 mg/kg, SD rats, 9.0 h, mean): 52.1 ng/mL
151 plasma concentration ([1]; 151 PO 10 mg/kg, SD rats, 24 h, individual): BLQ
F of 151 ([1]; 151 PO 10 mg/kg, SD rats, mean): 54.6%
conversion to endothal in the plasma (statement) ([1]; 151 administered to rats): converted to endothal
mean clearance of 151 from rat plasma ([1]; 151 iv 1.0 mg/kg): 14.3 mL/min/kg
volume of distribution at steady state of 151 ([1]; 151 iv 1.0 mg/kg): 0.736 L/kg
elimination half-life of 151 ([1]; 151 iv 1.0 mg/kg (n=2)): 0.89 h
mean half-life of 151 ([1]; 151 oral 10 mg/kg (n=3)): 1.26 h
time of peak plasma concentration of 151 ([1]; 151 oral 10 mg/kg (n=3)): 0.5 h
absolute bioavailability (F) of 151 ([1]; oral 10 mg/kg, based on AUC0-∞): 54.6%
AUC0-t of 151 [1, 3]: 1293 ng·h/mL and 1045 ng·h/mL
AUC0-∞ of 151 [1, 3]: 1309 ng·h/mL and 1047 ng·h/mL
CL of 151 [1, 3]: 12.7 mL/min/kg and 15.9 mL/min/kg
MRT of 151 [1, 3]: 0.91 h and 0.81 h
T1/2 of 151 [1, 3]: 0.91 h and 0.87 h
Vss of 151 [1, 3]: 0.696 L/kg and 0.775 L/kg
AUC0-t of 151 [1, 4]: 1169 ng·h/mL
AUC0-∞ of 151 [1, 4]: 1178 ng·h/mL
CL of 151 [1, 4]: 14.3 mL/min/kg
MRT of 151 [1, 4]: 0.86 h
T1/2 of 151 [1, 4]: 0.89 h
Vss of 151 [1, 4]: 0.736 L/kg
AUC0-t of 151 [1, 5]: 5399 ng·h/mL and 6423 ng·h/mL and 7199 ng·h/mL
AUC0-∞ of 151 [1, 5]: 5499 ng·h/mL and 6484 ng·h/mL and 7328 ng·h/mL
Cmax of 151 [1, 5]: 2451 ng/mL and 3934 ng/mL and 3343 ng/mL
MRT of 151 [1, 5]: 1.86 h and 1.62 h and 1.95 h
T1/2 of 151 [1, 5]: 1.33 h and 1.10 h and 1.35 h
AUC0-t of 151 ([1]; 151 PO 10 mg/kg, SD rats, mean): 6340 ng·h/mL
AUC0-∞ of 151 ([1]; 151 PO 10 mg/kg, SD rats, mean): 6437 ng·h/mL
Cmax of 151 ([1]; 151 PO 10 mg/kg, SD rats, mean): 3243 ng/mL
MRT of 151 ([1]; 151 PO 10 mg/kg, SD rats, mean): 1.81 h
T1/2 of 151 ([1]; 151 PO 10 mg/kg, SD rats, mean): 1.26 h
151 in brain tissue (statement) ([2]; 151 given by mouth to rats): barely detectable in brain tissue
levels of compound 100 in the plasma after 151 (statement) ([2]; 151 given by mouth to rats): substantial levels of compound 100 in the plasma
oral bioavailability ([2]; Discussion): about 60%
